The values below come from US7642221B2, “Substituted thien-3-yl-sulphonylamino(thio)carbonyl-triazoline(ethi)ones” (Bayer Aktiengesellschaft, priority 1999, dated 2010).

Common to all, as to assay type: in vivo
The subject of assay [1] is weeds. Description: Pre-emergence test, activity against weeds. The protocol: (§1) • Solvent: 5 parts by weight of acetone • Emulsifier: 1 part by weight of alkylaryl polyglycol ether
(§2) To produce a suitable preparation of active compound, 1 part by weight of active compound is mixed with the stated amount of solvent, the stated amount of emulsifier is added and the concentrate is diluted with water to the desired concentration.
(§3) Seeds of the test plants are sown in normal soil. After about 24 hours, the soil is sprayed with the preparation of active compound such that the particular amount of active compound desired is applied per unit area. The concentration of the spray liquor is chosen so that the particular amount of active compound desired is applied in 1000 liters of water per hectare.
(§4) After three weeks, the degree of damage to the plants is rated in % damage in comparison to the development of the untreated control.
(§5) The figure denote: • 0%=no effect (like untreated control) • 100%=total destruction

Assay [2] has as its system weeds. Briefly: Post-emergence test, activity against weeds. As to the method: as §1
(§6) To produce a suitable preparation of active compound, one part by weight of active compound is mixed with the stated amount of solvent, the stated amount of emulsifier is added and the concentrate is diluted with water to the desired concentration.
(§7) Test plants which have a height of 5-15 cm are sprayed with the preparation of active compound such that the particular amounts of active compound desired are applied per unit area. The concentration of the spray liquor is chosen so that the particular amounts of active compound desired are applied in 1000 l of water/ha.
as §4
(§8) The figures denote: • 0%=no effect (like untreated control) • 100%=total destruction

The subject of assay [3] is Stellaria. Description: Post-emergence test/greenhouse. Particulars: greenhouse, rated after three weeks. The protocol:
as §1, §6, §7, §4, §8

Assay [4] deals with Alopecurus. Description: Post-emergence test/greenhouse. Particulars: greenhouse, 15 g of ai/ha, rated after three weeks. The protocol:
as §1, §6, §7, §4, §8

For assay [5], the system named is Wheat. Briefly: Post-emergence test/greenhouse. The following applies: greenhouse, rated after three weeks. As to the method: as §1, §6, §7, §4, §8
For another assay, the system named is Matricaria. Description: Post-emergence test/greenhouse. The following applies: greenhouse, rated after three weeks. As to the method:
as §1, §6, §7, §4, §8

Assay [6] has as its system Abutilon. Briefly: Post-emergence test/greenhouse. The following applies: greenhouse, rated after three weeks. As to the method:
as §1, §6, §7, §4, §8

Assay [7] deals with Echinochloa. Description: Post-emergence test/greenhouse. Particulars: greenhouse, rated after three weeks. As to the method:
as §1, §6, §7, §4, §8

The test system of assay [8] is Amaranthus. Description: Post-emergence test/greenhouse. Particulars: greenhouse, rated after three weeks. The protocol:
as §1, §6, §7, §4, §8

The subject of assay [9] is Solanum. Briefly: Post-emergence test/greenhouse. The following applies: greenhouse, rated after three weeks. The protocol: as §1, §6, §7, §4, §8
Assay [10] has as its system Stellaria. Description: Pre-emergence test/greenhouse. The following applies: greenhouse, rated after three weeks. As to the method:
as §1, §2, §3, §4, §5

The test system of assay [11] is Alopecurus. Briefly: Pre-emergence test/greenhouse. The following applies: greenhouse, rated after three weeks. The protocol:
as §1, §2, §3, §4, §5

Assay [12] has as its system Barley. Description: Pre-emergence test/greenhouse. Particulars: greenhouse, 60 g of ai/ha, rated after three weeks. The protocol:
as §1, §2, §3, §4, §5

The subject of assay [13] is Wheat. Briefly: Pre-emergence test/greenhouse. The following applies: greenhouse, rated after three weeks. The protocol: as §1, §2, §3, §4, §5
Assay [14] relates to Amaranthus. Description: Pre-emergence test/greenhouse. Particulars: greenhouse, rated after three weeks. As to the method: as §1, §2, §3, §4, §5
Assay [15] has as its system Solanum. Briefly: Pre-emergence test/greenhouse. Particulars: greenhouse, rated after three weeks. As to the method:
as §1, §2, §3, §4, §5

For the next assay, the system named is Ipomoea. Briefly: Post-emergence test/greenhouse. The following applies: greenhouse, 8 g of ai/ha, rated after three weeks. As to the method:
as §1, §6, §7, §4, §8

A further assay relates to Bromus. Briefly: Pre-emergence test/greenhouse. Particulars: greenhouse, 125 g of ai/ha, rated after three weeks. As to the method:
as §1, §2, §3, §4, §5

The subject of assay [16] is Viola. Description: Pre-emergence test/greenhouse. The following applies: greenhouse, 125 g of ai/ha, rated after three weeks. The protocol:
as §1, §2, §3, §4, §5

The subject of assay [17] is Veronica. Briefly: Pre-emergence test/greenhouse. Particulars: greenhouse, 125 g of ai/ha, rated after three weeks. As to the method:
as §1, §2, §3, §4, §5

Assay [18] deals with Echinochloa. Briefly: Pre-emergence test/greenhouse. Particulars: greenhouse, 125 g of ai/ha, rated after three weeks. As to the method: as §1, §2, §3, §4, §5
A further assay has as its system Cyperus. Briefly: Pre-emergence test/greenhouse. The following applies: greenhouse, rated after three weeks. As to the method: as §1, §2, §3, §4, §5
The test system of another assay is Chenopodium. Description: Post-emergence test/greenhouse. The following applies: greenhouse, 2 g of ai/ha, rated after three weeks. The protocol: as §1, §6, §7, §4, §8
The subject of assay [19] is Barley. Briefly: Post-emergence test/greenhouse. Particulars: greenhouse, 2 g of ai/ha, rated after three weeks. As to the method: as §1, §6, §7, §4, §8
Assay [20] relates to Viola. Briefly: Post-emergence test/greenhouse. Particulars: greenhouse, 2 g of ai/ha, rated after three weeks. As to the method: as §1, §6, §7, §4, §8
Assay [21] relates to Veronica. Briefly: Post-emergence test/greenhouse. Particulars: greenhouse, 2 g of ai/ha, rated after three weeks. The protocol:
as §1, §6, §7, §4, §8

Another assay relates to Setaria. Briefly: Pre-emergence test/greenhouse. The following applies: greenhouse, 250 g of ai/ha, rated after three weeks. The protocol:
as §1, §2, §3, §4, §5

The subject of the next assay is Galium. Description: Pre-emergence test/greenhouse. The following applies: greenhouse, 250 g of ai/ha, rated after three weeks. As to the method: as §1, §2, §3, §4, §5
For assay [22], the system named is Abutilon. Description: Pre-emergence test/greenhouse. The following applies: greenhouse, 250 g of ai/ha, rated after three weeks. As to the method:
as §1, §2, §3, §4, §5

In the next assay the test system is Sinapis. Briefly: Pre-emergence test/greenhouse. Particulars: greenhouse, 250 g of ai/ha, rated after three weeks. As to the method:
as §1, §2, §3, §4, §5

For a further assay, the system named is Xanthium. Briefly: Pre-emergence test/greenhouse. Particulars: greenhouse, 250 g of ai/ha, rated after three weeks. The protocol:
as §1, §2, §3, §4, §5

With `CCCOc1nn(C(=O)NS(=O)(=O)c2c(C(=O)OC)csc2C)c(=O)n1C` [Example 3], the activity against weeds entry with weeds [1] and in the assay on weeds [2] was “very strong activity” each time. In addition, the “degree of damage to the plants, Stellaria” value (“degree of damage … Stellaria” for short) in the assay with Stellaria [3] (15 g of ai/ha) was determined as 100%; with Stellaria [10] (60 g of ai/ha) it was 95%. In addition, the figures for the “degree of damage to the plants, Alopecurus” value with Alopecurus [4] and with Alopecurus [11] (60 g of ai/ha) were 70% and 80%, respectively. The “degree of damage to the plants, Wheat” value in the assay with Wheat [5] (15 g of ai/ha) and in the assay with Wheat [13] (60 g of ai/ha) was 0% each time. Moreover, the “degree of damage to the plants, Matricaria” value with Matricaria (15 g of ai/ha) is on record as 90%. The “degree of damage to the plants, Abutilon” value in the assay with Abutilon [6] (15 g of ai/ha) is reported as 95%. Further, in the assay on Echinochloa [7] (15 g of ai/ha), the “degree of damage to the plants, Echinochloa” value (shortened to “degree of damage … Echinochloa”) was determined as 60%. For the same compound, the “degree of damage to the plants, Amaranthus” value (from here on “degree of damage … Amaranthus”) with Amaranthus [8] (15 g of ai/ha) and in the assay with Amaranthus [14] (60 g of ai/ha) was 95% in each case. For the same compound, the “degree of damage to the plants, Solanum” value in the assay on Solanum [9] (15 g of ai/ha) is recorded as 95%; in the assay on Solanum [15] (60 g of ai/ha) it was 90%. Further, in the assay with Barley [12], the “degree of damage to the plants, Barley” value is 0%.

As for `COC(=O)c1csc(C)c1S(=O)(=O)NC(=O)n1nc(OC(C)C)n(C)c1=O` [Example 4], the activity against weeds result in the assay on weeds [1] and in the assay on weeds [2] was “very strong activity” throughout. Further, the results for the “degree of damage … Stellaria” value in the assay on Stellaria [3] (8 g of ai/ha) and with Stellaria [10] (125 g of ai/ha) were 95% and 100%, respectively. In addition, the “degree of damage to the plants, Wheat” value with Wheat [5] (8 g of ai/ha) is 10%; in the assay on Wheat [13] (125 g of ai/ha) it was 20%. In addition, the “degree of damage to the plants, Matricaria” value in the assay on Matricaria (8 g of ai/ha) worked out at 90%. For the same compound, in the assay on Abutilon [6] (8 g of ai/ha), the “degree of damage to the plants, Abutilon” value was determined as 95%. In addition, in the assay on Ipomoea, the “degree of damage to the plants, Ipomoea” value is reported as 95%. Besides, in the assay with Amaranthus [8] (8 g of ai/ha), the “degree of damage … Amaranthus” value amounted to 95%. In addition, the “degree of damage to the plants, Solanum” value in the assay on Solanum [9] (8 g of ai/ha) came to 95%; in the assay on Solanum [15] (125 g of ai/ha) it was 100%. The “degree of damage to the plants, Bromus” value in the assay on Bromus turned out to be 100%. Further, the “degree of damage to the plants, Viola” value with Viola [16] is reported as 100%. For the same compound, in the assay with Veronica [17], the “degree of damage to the plants, Veronica” value turned out to be 100%. For the same compound, the “degree of damage … Echinochloa” value in the assay on Echinochloa [18] was 100%. Further, the “degree of damage to the plants, Cyperus” value in the assay with Cyperus (125 g of ai/ha) is given as 100%.

As to `COC(=O)c1csc(C)c1S(=O)(=O)NC(=O)n1nc(OC)n(C2CC2)c1=O` [Example 5], the activity against weeds result in the assay on weeds [1] and in the assay with weeds [2] was “very strong activity” throughout. The “degree of damage to the plants, Chenopodium” value with Chenopodium is recorded as 95%. Also, the “degree of damage … Stellaria” value with Stellaria [3] (2 g of ai/ha) stood at 100%. For the same compound, the “degree of damage to the plants, Barley” value in the assay with Barley [19] was 10%. The “degree of damage to the plants, Viola” value with Viola [20] is 90%. Also, the “degree of damage to the plants, Wheat” value in the assay with Wheat [5] (2 g of ai/ha) came to 10%. In the assay on Veronica [21], the “degree of damage to the plants, Veronica” value worked out at 90%. Besides, the “degree of damage … Echinochloa” value in the assay on Echinochloa [7] (2 g of ai/ha) is recorded as 95%. In addition, the “degree of damage … Amaranthus” value in the assay on Amaranthus [8] (2 g of ai/ha) amounted to 99%; in the assay with Amaranthus [14] (250 g of ai/ha) it was 100%. The “degree of damage to the plants, Alopecurus” value in the assay on Alopecurus [11] (250 g of ai/ha) is given as 99%. Besides, the “degree of damage to the plants, Setaria” value in the assay on Setaria turned out to be 100%. Moreover, the “degree of damage to the plants, Galium” value in the assay with Galium is given as 95%. Further, in the assay with Abutilon [22], the “degree of damage to the plants, Abutilon” value is 95%. Further, the “degree of damage to the plants, Sinapis” value in the assay with Sinapis was determined as 95%. For the same compound, the “degree of damage to the plants, Xanthium” value with Xanthium is recorded as 99%. For the same compound, the “degree of damage to the plants, Cyperus” value in the assay on Cyperus (250 g of ai/ha) is reported as 100%.
